Assay results as given in patent publication US8026367B2, “(R)-arylalkylamino derivatives and pharmaceutical compositions containing them” (Dompe PHA.R.MA S.p.A., priority 2005, dated 2011).
Counter-ions that a name gives are not always drawn.

Columns and labels:
[1] = system: C5a induced PMN migration; assay: Inhibition of C5a induced chemotaxis of human PMNs (microchamber assay); type: cell-based; details: compound concentration range between 10^−7 and 10^−8 M, C5a 10^−9 M, 60 min at 37° C.
Procedure: The compounds of the invention of formula (I) were evaluated in vitro for their ability to inhibit chemotaxis of polymorphonucleate leukocytes (hereinafter referred to as PMNs) and monocytes induced by the fractions of the complement C5a and C5a-desArg. For this purpose, to isolate the PMNs from heparinized human blood, taken from healthy adult volunteers, mononucleates were removed by means of sedimentation on dextran (according to the procedure disclosed by W. J. Ming et al., J. Immunol., 138, 1469, 1987) and red blood cells by a hypotonic solution. The cell vitality was calculated by exclusion with Trypan blue, whilst the ratio of the circulating polymorphonucleates was estimated on the cytocentrifugate after staining with Diff Quick.
Human recombinant fractions C5a and C5a-desArg (Sigma) were used as stimulating agents in the chemotaxis experiments, giving practically identical results.
The lyophilized C5a was dissolved in a volume of HBSS containing 0.2% bovin serum albumin BSA so thus to obtain a stock solution having a concentration of 10^−5 M to be diluted in HBSS to a concentration of 10^−9 M, for the chemotaxis assays.
In the chemotaxis experiments, the PMNs were incubated with the compounds of the invention of formula (I) for 15′ at 37° C. in an atmosphere containing 5% CO2.
The chemotactic activity of the C5a was evaluated on human circulating polymorphonucleates (PMNs) resuspended in HBSS at a concentration of 1.5×10^6 PMNs per mL.
During the chemotaxis assay (according to W. Falket et al., J. Immunol. Methods, 33, 239, 1980) PVP-free filters with a porosity of 5 μm and microchambers suitable for replication were used.
The compounds of the invention in formula (I) were evaluated at a concentration ranging between 10^−7 and 10^−10 M; for this purpose they were added, at the same concentration, both to the lower pores and the upper pores of the microchamber. The wells in the lower part contain the solution of C5a or the simple carrier, those in the upper part contain the suspension of PMNs.
Inhibition of C5a-induced chemotactic activity by the individual compounds of the invention of formula (I) was evaluated by incubating the microchamber for the chemotaxis for 60 min at 37° C. in an atmosphere containing 5% CO2.
By way of example, the inhibition data of the chemotaxis of PMN (concentration range between 10^−7 and 10^−8 M) of some representative compounds of the invention are reported in Table 1.

Row | melting point [°C] | Compound | % inhibition C5a induced PMN migration [1] [%]
1 | 120 to 122 | C[C@@H](NC(=O)c1cccnc1)c1ccc(OS(=O)(=O)C(F)(F)F)cc1 (as salt: methanesulfonate) [Compound 15, 4-{[(1R)-1-(pyridine-3-ylcarbonyl)amino]ethyl]}phenyl trifluoromethanesulfonate] | –
2 | – | C[C@@H](NS(=O)(=O)c1ccccc1)c1ccc(OS(=O)(=O)C(F)(F)F)cc1 [Compound 1, 4-{(1R)-1-[(phenylsulfonyl)amino]ethyl}phenyl trifluoromethanesulfonate] | 50 ± 1
3 | – | C[C@@H](NS(=O)(=O)c1ccccc1)c1cccc(C(=O)c2ccccc2)c1 [Compound 2, N-[(1R)-1-(3-benzoylphenyl)ethyl]benzenesulfonamide] | 59 ± 10
4 | – | C[C@@H](NS(=O)(=O)c1cccnc1)c1ccc(OS(=O)(=O)C(F)(F)F)cc1 [Compound 3, 4-{(1R)-1-[(pyridine-3-ylsulfonyl)amino]ethyl}phenyl trifluoromethanesulfonate] | 47 ± 7
5 | – | C[C@@H](NS(C)(=O)=O)c1cccc(C(=O)c2ccccc2)c1 [Compound 4, N-[(1R)-1-(3-benzoylphenyl)ethyl]methanesulfonamide] | 48 ± 8
6 | 105 to 106 | C[C@@H](NS(=O)(=O)c1cccs1)c1cccc(C(=O)c2ccco2)c1 [Compound 5, N-[(1R)-1-[3-(2-furoyl)phenyl]ethyl}thiophene-2-sulfonamide] | 60 ± 8
7 | – | C[C@@H](NS(C)(=O)=O)c1cccc(C(=O)c2ccco2)c1 [Compound 6, N-[(1R)-1-[3-(2-furoyl)phenyl]ethyl}methanesulfonamide] | 52 ± 7
8 | – | C[C@@H](NS(=O)(=O)c1cccs1)c1ccc(OS(=O)(=O)C(F)(F)F)cc1 [Compound 7, 4-{(1R)-1-[(thien-2-ylsulfonyl)amino]ethyl}phenyl trifluoromethanesulfonate] | 41 ± 8
9 | – | C[C@@H](NS(=O)(=O)c1cccs1)c1cccc(C(=O)c2ccccc2)c1 [Compound 8, N-[(1R)-1-(3-benzoylphenyl]ethyl}thiophene-2-sulfonamide] | 55 ± 14
10 | – | COC(=O)c1ccc(S(=O)(=O)N[C@H](C)c2cccc(C(=O)c3ccccc3)c2)o1 [Compound 10, methyl 5-({[(1R)-1-(3-benzoylphenyl)ethyl]amino}sulfonyl)-2-furoate] | 72 ± 6
11 | – | C[C@@H](NS(=O)(=O)c1ccc(C(=O)O)o1)c1cccc(C(=O)c2ccccc2)c1 [Compound 11, 5-({[(1R)-1-(3-benzoylphenyl)ethyl]amino}sulfonyl)-2-furoic acid] | 40 ± 4
12 | – | CC(C)[C@@H](NS(C)(=O)=O)c1ccc(OS(=O)(=O)C(F)(F)F)cc1 [Compound 12, 4-{(1R)-2-methyl-1-[(methylsulfonyl)amino]propyl}phenyl trifluoromethanesulfonate] | 40 ± 5
13 | – | C[C@@H](NS(C)(=O)=O)c1ccc(C(C)(C)S(=O)(=O)c2ccccc2)cc1 [Compound 13, N-((1R)-1-{4-[1-methyl-1-(phenylsulfonyl)ethyl]phenyl}ethyl)methanesulfonamide] | 64 ± 8
14 | – | CC(C)C(=O)N[C@H](C)c1ccc(OS(=O)(=O)C(F)(F)F)cc1 [Compound 14, 4-[(1R)-1-(isobutyrylamino)ethyl]phenyl trifluoromethanesulfonate] | 60 ± 8
15 | – | C[C@@H](NC(=O)c1cccnc1)c1ccc(OS(=O)(=O)C(F)(F)F)cc1 [Compound 15, 4-{[(1R)-1-(pyridine-3-ylcarbonyl)amino]ethyl]}phenyl trifluoromethanesulfonate] | 46 ± 6
16 | – | C[C@@H](NC(=O)c1ccccc1)c1cccc(C(=O)c2ccccc2)c1 [Compound 16, N-[(1R)-1-(3-benzoylphenyl)ethyl]benzamide] | 49 ± 5
17 | – | C[C@@H](NC(=O)c1ccco1)c1cccc(C(=O)c2ccccc2)c1 [Compound 17, N-[(1R)-1-(3-benzoylphenyl)ethyl]-2-furamide] | 63 ± 10
18 | 90 to 93 | C[C@@H](NC(=O)C1CCC1)c1cccc(C(=O)c2ccccc2)c1 [Compound 18, N-[(1R)-1-(3-benzoylphenyl)ethyl]cyclobutanecarboxamide] | 57 ± 4
19 | – | C[C@@H](NC(=O)CCCN1CCCCC1)c1ccc(OS(=O)(=O)C(F)(F)F)cc1 [Compound 19, N-[(1R)-1-(4-trifluoromethanesulfonyloxy)phenylethyl]-4-piperidin-1-ylbutanamide] | 54 ± 17
20 | – | C[C@@H](NC(=O)CCCN1CCCC1)c1ccc(OS(=O)(=O)C(F)(F)F)cc1 [Compound 20, 4-{(1R)-1-[(4-pyrrolidin-1-ylbutanoyl)amino]ethyl]}phenyl trifluoromethanesulfonate] | 47 ± 1
21 | – | C[C@@H](Nc1nc(C(F)(F)F)cs1)c1cccc(C(=O)c2ccccc2)c1 [Compound 21] | 42 ± 5
